The record followed here is US7968526B2, “Antisense oligonucleotides directed to ribonucleotide reductase R2 and uses thereof in the treatment of cancer” (Lorus Therapeutics Inc., priority 2003, dated 2011).

Data set [1] has as its system BxPC-3 human pancreatic carcinoma cells. The data set can be described thus: BxPC-3 gemcitabine resistant pancreatic carcinoma xenograft in CD-1 nude mice. To be noted: Gemcitabine 100 mg/kg i.v. every three days. In kind it is in vivo, human cells in mice. On the procedure: BxPC-3 is a gemcitabine resistant call line. […] Gemcitabine was administered intravenously every three days at a dose of 100 mg/kg. Antitumour activities were estimated by the inhibition of tumour volume, which was measured with caliper. Each point represents mean tumour volume calculated from 10 animals per experimental group. […] Hela S3 is a hydroxyurea resistant cell line. […] Hydroxyurea was administered intraperitoneally every day at a dose of 250 mg/kg for 10 days. Cisplatin was administered intravenously once a week for three weeks at a dose of 4 mg/kg. Antitumour activities were estimated by the inhibition of tumour volume, which was measured with caliper. Each point represents mean tumour volume calculated from 10 animals per experimental group. […] Cisplatin was administered intravenously once a week for three weeks at a dose of 4 mg/kg. Taxol was administered intravenously once a week for three weeks at a dose of 10 mg/kg. Antitumour activities were estimated by the inhibition of tumour volume, which was measured with caliper. Each point represents mean tumour volume calculated from 10 animals per experimental group. […] Taxol was administered i.p. once a week at a dose of 10 mg/kg. Antitumour activities were estimated by the inhibition of tumour volume (FIG. 12A), which was measured with calipers. Each point represents mean tumour volume calculated from 10 animals per experimental group. Animals were sacrificed and tumour weights taken at the end of the study (FIG. 12C). […] Cisplatin was administered intravenously once a week for four weeks at a dose of 4 mg/kg. Taxol was administered intravenously once a week for four weeks at a dose of 20 mg/kg. Antitumour activities were estimated by the inhibition of tumour volume, which was measured with caliper. Each point represents mean tumour volume calculated from 9-10 animals per experimental group. […] Cisplatin was administered intravenously once a week for four weeks at a dose of 4 mg/kg. Antitumour activities were estimated by the inhibition of tumour volume, which was measured with caliper. Each point represents mean tumour volume calculated from 10 animals per experimental group. At the end of the study the animals were sacrificed and tumours weighed. […] Taxol was administered i.p. once a week at a dose of 10 mg/kg. Anti-tumour activity was estimated by the inhibition of tumour volume, which was measured with caliper. Each point represents mean tumour volume calculated from 10 animals per experimental group. […] Antitumour activities were estimated by the inhibition of tumour volume, which was measured with caliper. Each point represents mean tumour volume calculated from 10 animals per experimental group. Tumour weights were measured after animals were sacrificed at the end of the treatment. […]

Data set [2] concerns NCI-H460 human lung cancer cells. The data set can be described thus: NCI-H460 lung tumour growth in CD-1 nude mice (3.5). The data set is classed as in vivo, human cells in mice. On the procedure: Treatments lasted for 14 days thereafter. Antitumour activities were estimated by the inhibition of tumour volume, which was measured with a caliper on four different occasions over the treatment period. Each point represents mean tumour volume calculated from 5 animals per experimental group. […] Control animals (control) received saline alone for the same period. At the end of the treatments, the animals were sacrificed, tumours were excised and their weights were measured. Each bar represents mean tumour weight calculated from 6 animals per experimental group. […] Treatments lasted for 24 days thereafter. Antitumour activities were estimated by the inhibition of tumour volume, which was measured with a caliper at two-day intervals over the treatment period. Each point represents mean tumour volume calculated from 4 animals per experimental group. […] Treatments lasted for 24 days thereafter. Antitumour activities were estimated by the inhibition of tumour volume, which was measured with a caliper at two-day intervals over the treatment period. Each point represents mean tumour volume calculated from 4 animals per experimental group. […] Each point represents mean tumour volume calculated from 5 animals per experimental group. […] Antitumour activities were estimated by the inhibition of tumour volume, which was measured with a caliper on four different occasions over 16-day period. Each point represents mean tumour volume calculated from 5 animals per experimental group. […] Antitumour activities were estimated by the inhibition of tumour volume, which was measured with a caliper at two-day intervals over the treatment period. Each point represents mean tumour volume calculated from 5 animals per experimental group. […] Antitumour activities were estimated by the inhibition of tumour volume, which was measured with a caliper at various time intervals over the span of 30 days. Each point represents mean tumour volume calculated from 6 animals per experimental group. […] Antitumour activities were estimated by the inhibition of tumour volume, which was measured with a caliper. […]

Regarding “5′-GGCTAAATCGCTCCACCAAG-3′ (all phosphorothioate, sugars by position and methylation of C not given here) [SEQ ID NO: 1, fully phosphorothioated antisense oligonucleotide that hybridizes to the coding region of R2 mRNA]”, the “Tumour weight as % of saline control” value in data set [1] (BxPC-3 (pancreatic), Gemcitabine resistant, CD-1, SEQ ID NO:1 10 mg/kg i.v. every other day 17 times) was determined as 5.8%. The “Antitumour effect (tumour volume, FIG. 9)” value in data set [1] (BxPC-3 gemcitabine resistant, CD-1 nude mice, SEQ ID NO:1 10 mg/kg i.v. every other day) is on record as “significant delay of tumour growth compared to saline control”. In data set [2] (Human Lung Carcinoma), the “Inhibition of tumour weight” value is listed as ~70%. The “Inhibition of tumour size” value in data set [2] (Human Lung Carcinoma in CD-1 Nude mice, Days 14 to 19 after tumour implantation) is “Inhibition of tumour size by approximately 85%”. The “Inhibitory effect on tumour growth (tumour volume, FIG. 18D)” value in data set [2] (NCI-H460, CD-1 nude mice, 10 mg/kg i.v. every other day, 14 days) is reported as “strong inhibitory effects on the growth of human lung carcinoma”.
